From patent publication US20260083691A1, “TREATING CANCERS WITH COMBINATIONS OF ANTI-CD20 ANTIBODY AND ACYLFULVENES” (Lantern Pharma Inc., priority 2023, published 2026) come the findings set out here.

In one series the test system is B-cells (CD19+ or CD20+). The series is described as follows: B-cell reduction in immune-proficient mice, blood analyzed by flow cytometry. The series is classed as in vivo. The procedure: (§1) In this study, vehicle, LP-284 (4 mg/kg), and cyclophosphamide (25 mg/kg, a clinically relevant dose) were administered intravenously on days 1, 8, and 15, with three mice per treatment group. Blood samples were collected on Day 16 and analyzed by flow cytometry to quantify the B-cell populations.

Series [1] is described as follows: Tolerability (body weight, gross necropsy) in immune-proficient mice. To be noted: 4 mg/kg intravenously days 1, 8, 15. The protocol:
as §1

Series [2] relates to OCLLY1-derived tumor xenografts. The series is described as follows: LP-284 alone and with rituximab in OCLLY1 DLBCL/HGBL-MYC/BCL2 tumor xenografts in mice. Type of series: in vivo. To be noted: for tumor growth inhibition (TGI): day 24, NOD.SCID mice. The procedure: HRD genomic scars from 107 B-NHL patients in the Pan-Cancer Analysis of Whole Genomes (PCAWG) study were tested. At least 10% of B-NHL patients were likely HRD+, with approximately 90% of these cases being diffuse large B-cell lymphoma (DLBCL). […] The calculated bliss synergy score between LP-284 and Rituximab on day 24 is 10, indicating synergy.
LP-284's efficacy in DLBCL/HGBL-MYC/BCL2 xenograft models was evaluated. LP-284, vehicle (saline), and Rituximab were administered intravenously in OCLLY1-derived tumor xenografts in mice. All vehicle-treated mice were sacrificed by day 24 due to excessive tumor size.
LP-284 was tested for anti-tumor efficacy as a monotherapy and in combination with rituximab in OCI-LY 1 DLBCL/HGBL-MYC/BCL2 cell line-derived tumor xenografts in mice. Methods: OCLLY1 cells were implanted subcutaneously in NOD.SCID mice. The following treatments were initiated when the tumors reached a volume of >100 mm3: vehicle (saline, administered intravenously on days 1, 8, and 15 in a 28-day cycle), 2 mg/kg or 4 mg/kg LP-284 (administered intravenously on days 1, 8, and 15 in a 28-day cycle), 10 mg/kg rituximab (administered intravenously on days 1 and 15 in a 28-day cycle), 2 mg/kg LP-284 and 10 mg/kg rituximab in combination. Four mice were used in each treatment group. Tumor Growth Inhibition (TGI) was calculated as % TGI=(1−((Tt/T0)/(Ct/C0)))/(1−(C0/Ct))*100 where Tt=mean tumor volume of treated at time t, TO=mean tumor volume of treated at time 0, Ct=mean tumor volume of control at time t, CO=mean tumor volume of control at time 0.

SMILES strings stand for the structures.

For the compound `O=P1(N(CCCl)CCCl)NCCCO1` (centres unmarked) [cyclophosphamide, reference compound], the “reduction of B-cells (CD19+ or CD20+)” value in the series with B-cells (CD19+ or CD20+) (cyclophosphamide 25 mg/kg intravenously days 1, 8, 15, blood collected Day 16, immune-proficient mice) is “comparable to the reduction achieved by cyclophosphamide”.

With `CC1=C(CN(O)C(N)=O)C2=C(C)C3(CC3)[C@](C)(O)C(=O)C2=C1` [LP-284, (+)-hydroxyureamethyl acylfulvene], in series [1], the body weight result is “normal body weight”, the gross necropsy findings result is recorded as “no abnormal findings” and the tolerability result was “well-tolerated”. For the same compound, the “reduction of B-cells (CD19+ or CD20+)” value in the series on B-cells (CD19+ or CD20+) (iv, 4 mg/kg, 384 h) is given as “approximately 30%”. Besides, in series [2] (2 mg/kg LP-284 alone intravenously days 1, 8, 15), the “tumor growth inhibition (TGI)” value is reported as 57%. Besides, the “tumor growth inhibition (TGI)” value in series [2] (4 mg/kg LP-284 intravenously days 1, 8, 15) is 99%. In addition, the tumor volume result in series [2] (by day 24, versus vehicle (saline), intravenous) is given as “significantly reduced tumor volume”.
